The values below come from patent US20100210654A1, “NOVEL P2Y12 RECEPTOR ANTAGONISTS” (RHEINISCHE FRIEDRICH-WILHELMS UNIVERSITÄT BONN, priority 2007, published 2010).

The structures appear in SMILES notation.

A word on the Ki: it is the dissociation constant of the complex between target and ligand, obtained from inhibition or displacement. What is called IC50 is the point on the concentration scale where inhibition reaches its midpoint.

Experiment [1] addresses T1, P2Y12 (Homo sapiens, UniProt Q9H244). In words: GTP shift experiments (radioligand binding in presence and absence of GTP). Further details: Membranes were prepared from human outdated platelets from the blood bank; from tissue; host or cells: human platelets (University of Bonn blood bank), membrane preparation. The following applies: presence and absence of GTP (100 μM); no shift = antagonist rather than agonist. The protocol:
(§1) Radioligand binding assays were performed using 5 nM [^3H]PSB-0413 and 100 μg of protein in Tris-HCl buffer 50 mM, pH 7.4, as previously described. (El-Tayeb, A., Griessmeier, K. J, Müller, C. E. Bioorg. Med. Chem. Lett. 2005, 15, 5450-52; Atzler, K. Doctoral Thesis, University of Bonn, 2006). Competition by 10 μM of test compound was initially determined. The mixture was incubated for 1 h at rt followed by filtration through GF/B filters. Nonspecific binding was determined with 1 mM ADP or 250 μM RB 2. […] At least three independent experiments were performed each in triplicate.
Selected compounds were investigated for their functionality in GTP shift experiments. Radioligand binding studies as described above were performed in the presence and absence of GTP (100 μM).
Target sequence in this assay (Q9H244 whole entry): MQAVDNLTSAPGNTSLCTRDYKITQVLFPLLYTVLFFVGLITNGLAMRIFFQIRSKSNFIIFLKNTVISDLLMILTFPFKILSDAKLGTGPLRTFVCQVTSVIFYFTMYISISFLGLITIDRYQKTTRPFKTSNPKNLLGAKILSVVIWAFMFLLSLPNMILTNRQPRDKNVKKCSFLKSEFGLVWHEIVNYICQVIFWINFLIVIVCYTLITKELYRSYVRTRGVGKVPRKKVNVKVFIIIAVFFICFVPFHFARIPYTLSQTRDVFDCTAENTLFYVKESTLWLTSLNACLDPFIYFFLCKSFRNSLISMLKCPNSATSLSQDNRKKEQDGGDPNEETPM

The target in experiment [2] is T2, human platelet P2Y12 receptors (Homo sapiens, UniProt Q9H244).
T2 construct: Membranes were prepared from human outdated platelets from the blood bank; from tissue; host or cells: human platelets (University of Bonn blood bank), membrane preparation
In words: Radioligand binding assay with [3H]PSB-0413 at human platelet membranes. To be noted: human platelet membranes, 5 nM [3H]PSB-0413, 1 h at rt; mean ± SEM; read-out: hP2Y12 Receptor Ki [μM ± SEM] vs. [3H]PSB-0413. The protocol: Membranes were prepared from human outdated platelets from the blood bank. Outdated human platelets were obtained from the University of Bonn blood bank 4-5 days after donation. Platelet rich plasma was washed by centrifugation (10 min at 1000 g) in a buffer consisting of 50 mM Tris-HCl, pH 7.4, 5 mM EDTA and 150 mM NaCl. The supernatant was centrifuged twice (48400 g for 60 min) and the resultant platelet pellet were resuspended in 5 mM Tris-HCl (pH 7.4) containing 5 mM EDTA. The platelets were homogenized by a homogenizer. The final suspension was stored frozen as multiple aliquots at −80° C. until needed. Protein concentrations were determined by the method of Lowry using a Sigma Chemie protein assay kit.
as §1
(§2) The data were analyzed using GraphPad Prism 4.0 (GraphPad Software, Inc., San Diego, Calif.).

For another experiment, the target named is rP2Y6 Receptor (Rattus norvegicus, UniProt Q63371). In words: Inhibition of agonist-induced calcium mobilization, recombinant receptor in human astrocytoma cells. It is filed as cell-based. The following applies: mean ± SEM. The procedure: (§3) Inhibition of agonist-induced calcium mobilization was determined as previously described (Kaulich M. et al, Drug Dev. Res. 2003, 59, 72-81) using NG108-15 cells for the mouse P2Y2 receptor, or human recombinant P2Y receptors stably expressed in human astrocytoma cells (El-Tayeb, A. et al., J. Med. Chem. 2006, 49, 7076-87).
as §2
(Calcium assays in cells follow changes in intracellular calcium, usually with a dye or a luminescent sensor.)

The next experiment has as its target hP2Y4 Receptor (Homo sapiens, UniProt P51582). The experiment is described as above. The following applies: mean ± SEM. It is filed as cell-based. The protocol: as §3, §2
A further experiment addresses mouse P2Y2 receptor (Mus musculus, UniProt P35383). In words: Inhibition of agonist-induced calcium mobilization in NG108-15 cells. The format is cell-based. The following applies: mean ± SEM, read-out: mP2Y2 Receptor IC50 (μM ± SEM). The procedure:
as §3, §2

A further experiment addresses T3, hP2Y2 Receptor (Homo sapiens, UniProt P41231).
T3 construct: expressed in transfected cells; host or cells: human astrocytoma cells
The experiment in a line: Inhibition of agonist-induced calcium mobilization, recombinant receptor in human astrocytoma cells. The format is cell-based. To be noted: mean ± SEM. The procedure: as §3, §2

Experiment [3] has as its target T1, P2Y12. To be noted: recent review article (Abbracchio et al. 2006); read-out: Ki value as P2Y12 antagonist; cited from earlier work.
Target sequence in this assay (Q9H244 whole entry, species assumed): as the sequence (Q9H244 whole entry) above

Chain of rP2Y6 Receptor (Q63371 whole entry): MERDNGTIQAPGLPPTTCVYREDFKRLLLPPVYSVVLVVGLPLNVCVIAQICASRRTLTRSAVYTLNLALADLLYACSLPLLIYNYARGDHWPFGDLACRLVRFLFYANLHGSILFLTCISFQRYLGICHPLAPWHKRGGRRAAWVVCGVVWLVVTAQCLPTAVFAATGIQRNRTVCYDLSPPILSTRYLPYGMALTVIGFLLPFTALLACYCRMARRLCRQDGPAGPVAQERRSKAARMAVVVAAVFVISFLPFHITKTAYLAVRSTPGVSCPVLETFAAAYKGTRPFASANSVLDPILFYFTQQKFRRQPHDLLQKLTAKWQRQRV
Chain of mouse P2Y2 receptor (P35383 whole entry): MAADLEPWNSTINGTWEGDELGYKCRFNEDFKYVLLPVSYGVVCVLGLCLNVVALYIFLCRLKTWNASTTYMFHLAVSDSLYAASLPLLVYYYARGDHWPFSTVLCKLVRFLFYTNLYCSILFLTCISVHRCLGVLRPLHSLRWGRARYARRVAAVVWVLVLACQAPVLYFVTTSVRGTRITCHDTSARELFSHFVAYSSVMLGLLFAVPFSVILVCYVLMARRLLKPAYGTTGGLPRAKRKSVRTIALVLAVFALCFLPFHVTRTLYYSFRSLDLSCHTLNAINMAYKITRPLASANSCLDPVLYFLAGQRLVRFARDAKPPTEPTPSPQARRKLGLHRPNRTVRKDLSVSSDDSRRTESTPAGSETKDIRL
T3 sequence (P41231 whole entry): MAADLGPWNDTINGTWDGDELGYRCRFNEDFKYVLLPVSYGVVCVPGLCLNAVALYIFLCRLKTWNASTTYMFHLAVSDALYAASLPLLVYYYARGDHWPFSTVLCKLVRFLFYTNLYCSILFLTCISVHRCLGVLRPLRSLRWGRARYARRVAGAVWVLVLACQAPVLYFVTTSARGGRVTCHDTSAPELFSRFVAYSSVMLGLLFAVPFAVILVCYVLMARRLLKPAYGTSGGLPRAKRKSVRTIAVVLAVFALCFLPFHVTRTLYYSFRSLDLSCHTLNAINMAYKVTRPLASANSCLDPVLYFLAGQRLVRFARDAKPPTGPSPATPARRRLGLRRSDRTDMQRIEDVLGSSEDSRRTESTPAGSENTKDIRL
Chain of hP2Y4 Receptor (P51582 whole entry): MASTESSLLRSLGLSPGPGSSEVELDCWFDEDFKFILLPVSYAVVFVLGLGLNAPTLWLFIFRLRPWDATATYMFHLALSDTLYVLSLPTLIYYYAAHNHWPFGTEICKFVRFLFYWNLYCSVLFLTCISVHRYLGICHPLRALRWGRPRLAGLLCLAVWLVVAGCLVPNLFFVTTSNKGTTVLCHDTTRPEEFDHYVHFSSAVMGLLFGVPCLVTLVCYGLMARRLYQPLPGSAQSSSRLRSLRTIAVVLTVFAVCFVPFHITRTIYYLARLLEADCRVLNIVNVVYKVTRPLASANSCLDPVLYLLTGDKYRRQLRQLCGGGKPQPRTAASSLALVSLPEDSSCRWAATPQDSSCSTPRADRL
T2 sequence (Q9H244 whole entry): as the sequence (Q9H244 whole entry) above

`Nc1ncnc2c1ncn2[C@@H]1O[C@H](COP(=O)(O)OP(=O)(O)O)[C@@H](O)[C@H]1O` [ADP, reference compound]: on P2Y12 [1], the “right-shift of the concentration-inhibition curve in GTP shift experiments” value is on record as “significant right-shift”.
Turning to `Nc1ccc(Nc2cc(S(=O)(=O)O)c(N)c3c2C(=O)c2ccccc2C3=O)cc1S(=O)(=O)O` [Entry 5], the Ki in experiment [2] was 2.39 ± 0.65 µM. Further, the IC50 at rP2Y6 Receptor came to 24.3 ± 3.4 µM; at hP2Y4 Receptor, 11 ± 3 µM.
Consider `Nc1c(S(=O)(=O)O)cc(Nc2ccc(Cl)cc2)c2c1C(=O)c1ccccc1C2=O` [Entry 15], for which the IC50 was 20 ± 7 µM on mouse P2Y2 receptor, > 10 µM on rP2Y6 Receptor, 4.46 ± 0.75 µM at hP2Y2 Receptor and > 3 µM on hP2Y4 Receptor. The inhibitory constant (Ki) in experiment [2] turned out to be 7.35 ± 1.72 µM.
As for `Nc1c(S(=O)(=O)O)cc(Nc2ccccc2)c2c1C(=O)c1ccccc1C2=O` [Entry 17], the IC50 at mouse P2Y2 receptor came to 11.1 ± 3 µM; at hP2Y2 Receptor, 5.61 ± 0.47 µM. In addition, the Ki in experiment [2] turned out to be 9.83 ± 2.43 µM.
Take `Nc1c(S(=O)(=O)O)cc(Nc2ccc(Nc3ccccc3)cc2)c2c1C(=O)c1ccccc1C2=O` [Entry 18]: the IC50 on mouse P2Y2 receptor is 30 ± 7 µM; on rP2Y6 Receptor, > 1 µM; on hP2Y4 Receptor it was > 3 µM. The Ki in experiment [2] is 1.85 ± 0.57 µM.
Consider `Nc1c(S(=O)(=O)O)cc(Nc2cccc3ccccc23)c2c1C(=O)c1ccccc1C2=O` [Entry 25], for which the IC50 on mouse P2Y2 receptor was 10.7 ± 1 µM; on rP2Y6 Receptor it was 26.7 µM; at hP2Y2 Receptor, 6.67 ± 0.32 µM; at hP2Y4 Receptor, 10.1 ± 1.4 µM.
For the compound `Nc1c(S(=O)(=O)O)cc(Nc2cccc(Cl)c2)c2c1C(=O)c1ccccc1C2=O` [Entry 27], the Ki in experiment [2] turned out to be 6.76 ± 2.07 µM. In addition, the figures for the IC50 at rP2Y6 Receptor, at hP2Y2 Receptor and at hP2Y4 Receptor were > 100 µM, 24.5 ± 10.4 µM and > 3 µM, respectively.
Regarding `Nc1c(S(=O)(=O)O)cc(Nc2cccc([N+](=O)[O-])c2)c2c1C(=O)c1ccccc1C2=O` [Entry 28], the IC50 on hP2Y2 Receptor was 7.52 ± 0.82 µM.
Consider `Nc1c(S(=O)(=O)[O-])cc(Nc2ccc(Nc3ncccn3)c(S(=O)(=O)[O-])c2)c2c1C(=O)c1ccccc1C2=O.[Na+].[Na+]` [Entry 33], for which, on P2Y12 [1], the “right-shift of the concentration-inhibition curve in GTP shift experiments” value is given as “did not”. Also, the inhibition constant Ki in experiment [2] was 0.0507 ± 0.016 µM. Further, the IC50 at rP2Y6 Receptor was found to be 28.6 ± 2.7 µM; at hP2Y4 Receptor it was 9.04 ± 1.2 µM.
`COc1nc(Cl)nc(Nc2ccc(Nc3cc(S(=O)(=O)[O-])c(N)c4c3C(=O)c3ccccc3C4=O)cc2S(=O)(=O)[O-])n1.[Na+].[Na+]` [Entry 37]: on P2Y12 [1], the “right-shift of the concentration-inhibition curve in GTP shift experiments” value was “did not”. In addition, the Ki in experiment [2] is 0.66 ± 0.12 µM.
Regarding `Nc1c(S(=O)(=O)O)cc(Nc2ccc(Nc3nc(Cl)nc(Nc4cccc(S(=O)(=O)O)c4)n3)c(S(=O)(=O)O)c2)c2c1C(=O)c1ccccc1C2=O` [Reactive Blue 2, reference compound], the “right-shift of the concentration-inhibition curve in GTP shift experiments” value on P2Y12 [1] is recorded as “did not”. On P2Y12 [3], the Ki is 1.3 µM.
